Experimental data taken from patent publication US20230295285A1, “METHODS OF REVERSING CACHEXIA AND PROLONGING SURVIVAL COMPRISING ADMINISTERING A GDF15 MODULATOR AND AN ANTI-CANCER AGENT” (AVEO Pharmaceuticals, Inc., priority 2014, published 2023).
Read-outs that look alike come from different tables or passages of the source.

Assays:
Format in all cases: in vivo
GDF15 [1] = molecular target: T1, GDF15 (Mus musculus, UniProt Q9Z0J7); details: ICR-Scid mice
T1 construct: Naive non-tumor-bearing, 8-week old, female, ICR-Scid mice; from tissue; host or cells: whole animal: ICR-Scid mice (endogenous circulating GDF15)
T1 sequence (Q9Z0J7 189-303): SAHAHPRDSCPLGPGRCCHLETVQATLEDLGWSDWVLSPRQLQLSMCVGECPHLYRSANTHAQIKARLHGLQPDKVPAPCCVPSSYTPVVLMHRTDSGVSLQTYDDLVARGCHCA
Description: Naive non-tumor-bearing, 8-week old, female, ICR-Scid mice were treated with carboplatin (60 mpk) by intra-peritoneal injection on Day 0 and Day 3 of this experiment. On Day 2, after mice experience 8% body weight loss, mice were randomized into two groups of ten mice each. One group received carboplatin (60 mpk) plus (1) vehicle or carboplatin (60 mpk) plus (2) rabbit monoclonal antibody raised against murine anti-GDF15 antibody, R-23 (20 mpk) by intra-peritoneal injection on Day 2 and Day 4. In the absence of GDF15 inhibition, 80% of the mice died due to cachexia caused by the carboplatin agent over a period of 8 days.

GDF15 [2] = molecular target: T1, GDF15; details: non-tumor-bearing ICR-Scid mice; cisplatin 3 mpk i.p. twice a week + vehicle; over 9 days
Description: Naive non-tumor-bearing, 8-week old, female, ICR-Scid mice were treated with cisplatin (3 mpk) twice a week by intra-peritoneal injection. Body weight was measured daily. After 2 doses of cisplatin (day 0 of the experiment) mice were randomized into two groups of ten mice each. One group received cisplatin 3 mpk plus (1) vehicle; or cisplatin 3 mpk with (2) rabbit monoclonal antibody raised against murine anti-GDF15 antibody, R-23 twice a week (20 mpk) by intra-peritoneal injection. In the absence of GDF15 inhibition, 80% of the mice die due to cachexia caused by the cisplatin agent over a period of 9 days.

GDF15 [3] = molecular target: T1, GDF15; details: ICR-Scid mice; remark: listed apart in the source
Description: Naive non-tumor-bearing, 8-week old, female, ICR-Scid mice were treated daily with oxaliplatin (3 mpk) by intra-peritoneal injection. On Day 3, after mice experience 8% body weight loss, mice were randomized into two groups of ten mice each. One group received oxaliplatin (3 mpk) plus (1) vehicle; or oxaliplatin (3 mpk) plus (2) rabbit monoclonal antibody raised against murine anti-GDF15 antibody, R-23 (20 mpk). Antibody or vehicle was dosed on Day 3, 5, 7, 9 by intra-peritoneal injection. In the absence of GDF15 inhibition, 45% of the mice die due to cachexia caused by the oxaliplatin agent over a period of 10 days.

GDF15 [4] = assay: Survival and cachexia in mice bearing LNCaP prostate xenograft, anti-GDF15 antibody plus tivozanib; details: LNCaP xenograft NCR Nude mice
Description: LNCaP cells were grown in culture at 37° C. in an atmosphere containing 5% CO2, using RPMI-1640 Medium (ATCC® 30-2001™) containing 10% FBS. Cells were inoculated subcutaneously into the flank of 8-week old female NCR Nude mice with 5×10^6 cells per mouse in 50% matrigel. When tumor size reached 500 mm^3, the mice were randomized into three groups of ten mice each. Each group received one of the following treatments: (1) murine immunoglobulin G (20 mpk) and vehicle (Control); (2) murine anti-GDF15 antibody 14F11 (20 mpk) and tivozanib (5 mpk); or (3) murine immunoglobulin G (20 mpk) and tivozanib (5 mpk). Antibodies were administered every 3 days by intra-peritoneal injection, tivozanib and vehicle control was administered daily by oral gavage. Body weight and tumor size were measured daily. Mice were evaluated daily and if any of the following criteria were achieved, animals were sacrificed: a) tumor size larger than 2,000 mm^3; b) body weight loss greater than 20%; c) moribund.
In the absence of GDF15 inhibition, 70% of the mice die due to cachexia over a period of 30 days, even in the presence of anti-cancer treatment.

## N.N.O=C([O-])C1(C(=O)[O-])CCC1.[Pt+2] [carboplatin]
GDF15 [1]; carboplatin 60 mpk i.p. Day 0 and Day 3 + vehicle, over 8 days
  mice died due to cachexia caused by carboplatin: 80%
GDF15 [1]; carboplatin 60 mpk i.p., on Day 2, before randomization
  body weight loss: 8%

## N.N.[Cl][Pt][Cl] [cisplatin]
GDF15 [2]
  mice die due to cachexia caused by cisplatin: 80%

## O=C1[O][Pt]2([NH][C@@H]3CCCC[C@H]3[NH]2)[O]C1=O [oxaliplatin]
GDF15 [3]; oxaliplatin 3 mpk i.p. daily + vehicle, over 10 days
  mice die due to cachexia caused by oxaliplatin: 45%
GDF15 [3]; oxaliplatin 3 mpk i.p. daily, on Day 3, before randomization
  body weight loss: 8%

## COc1cc2nccc(Oc3ccc(NC(=O)Nc4cc(C)on4)c(Cl)c3)c2cc1OC [tivozanib]
GDF15 [4]; tivozanib 5 mpk daily oral
  effect on tumor growth: slows down tumor growth
GDF15 [4]; tivozanib 5 mpk daily oral gavage + murine IgG 20 mpk, absence of GDF15 inhibition, over 30 days
  mice die due to cachexia: 70%

B1: 14F11: murine anti-GDF15 antibody; light chain SEQ ID NO: 34, heavy chain SEQ ID NO: 53 (antibody)
heavy: QVTLKESGPGILQPSQTLSLTCSFSGFSLSTYGMGVGWIRQPSGKGLEWLADIWWDDDKYYNPSLKSRLTISKDTSSNEVFLKIAIVDTADTATYYCARRGHYSAMDYWGQGTSVTVSSAKTTPPSVYPLAPGSAAQTNSMVTLGCLVKGYFPEPVTVTWNSGSLSSGVHTFPAVLQSDLYTLSSSVTVPSSTWPSETVTCNVAHPASSTKVDKKIVPRDCGCKPCICTVPEVSSVFIFPPKPKDVLTITLTPKVTCVVVDISKDDPEVQFSWFVDDVEVHTAQTQPREEQFNSTFRSVSELPIMHQDWLNGKEFKCRVNSAAFPAPIEKTISKTKGRPKAPQVYTIPPPKEQMAKDKVSLTCMITDFFPEDITVEWQWNGQPAENYKNTQPIMDTDGSYFVYSKLNVQKSNWEAGNTFTCSVLHEGLHNHHTEKSLSHSPGK
light: DIVMTQSQKFMSTSVGDRVSVTCKASQNVGTNVAWYQQKPGQSPKALIYSPSYRYSGVPDRFTGSGSGTDFTLTISNVQSEDLAEYFCQQYNSYPHTFGGGTKLEMKRADAAPTVSIFPPSSEQLTSGGASVVCFLNNFYPKDINVKWKIDGSERQNGVLNSWTDQDSKDSTYSMSSTLTLTKDEYERHNSYTCEATHKTSTSPIVKSFNRNEC
GDF15 [4]; 14F11 20 mpk + tivozanib 5 mpk, 30 day period
  anti-tumor effect: effective anti-tumor treatment
GDF15 [4]; 14F11 20 mpk + tivozanib 5 mpk, 30 days
  effect on cachexia: reverses cachexia
GDF15 [4]; 14F11 20 mpk i.p. every 3 days + tivozanib 5 mpk daily oral, over 30 day period, FIG. 1
  sustained survival: 100%
